According to US10245249B2, “Pharmaceutical compositions comprising nitroxyl donors” (Cardioxyl Pharmaceuticals, Inc., priority 2013, dated 2019):

What was measured:
[1] = HNO production determined via N2O quantification (GC headspace analysis); assay type: physicochemical; conditions: PBS, 37° C.
Description: Nitrous oxide (N2O) is produced via the dimerization and dehydration of HNO, and is the most common marker for nitroxyl production (Fukuto et al., Chem. Res. Toxicol. 18:790-801 (2005)). […] Using either nitrous oxide gas or Angeli's salt (AS) as a standard, the relative amounts of N2O released from compounds of the disclosure was examined via gas chromatography (GC) headspace analysis.
A procedure for determining the relative amounts of N2O released from compounds of the disclosure is as follows. GC was performed on an Agilent gas chromatograph equipped with a split injector (10:1 splitting), microelectron capture detector, and a HP-MOLSIV 30 m×0.32 mm×25 μm molecular sieve capillary column. Helium was used as the carrier (4 mL/min) gas and nitrogen was used as the make-up (20 mL/min) gas. The injector oven and the detector oven were kept at 200° C. and 325° C., respectively. All nitrous oxide analyses were performed with the column oven held at a constant temperature of 200° C.
All gas injections were made using an automated headspace analyzer. Vial pressurization was 15 psi. The analyzer's sample oven, sampling valve, and transfer line were kept at 40° C., 45° C., and 50° C., respectively. The oven stabilization, vial pressurization, loop fill, loop equilibration, and sample injection times were 1.00 min., 0.20 min., 0.20 min., 0.05 min., and 1.00 min., respectively.
All determinations used a batch of nominal 20 mL headspace vials with volumes pre-measured for sample uniformity (actual vial volume varied by <2.0% relative standard deviation (n=6)). The average vial volume for the batch was determined from six randomly-selected vials by calculating the weight difference between the capped and sealed empty (i.e., air-filled) vial and the capped and sealed deionized water-filled vial using the known density of deionized water, then averaging. Blanks were prepared by sealing and capping two vials then purging each for 20 seconds with a gentle argon stream. Nitroxyl standards were prepared by sealing and capping four vials then purging each for 1 minute with a gentle stream, from a gas cylinder, of a 3000 ppm […].
CXL-1020 (N-hydroxy-2-methanesulfonylbenzene-1-sulfonamide) “standards” were prepared by, in duplicate, accurately weighing 10±0.5 mg of CXL-1020 and adding it to each 4 mL vial. Using an auto pipette, 1 mL of argon-purged anhydrous DMF (Sigma-Aldrich) was added to each 4 mL vial to form a CXL-1020 stock solution for each sample and the vials were capped and shaken and/or sonicated to insure complete dissolution upon visual observation. Using an auto pipette, 20 mL vials were charged with 5 mL of PBS (purged for at least 30 min. with argon prior to use), purged with argon for at least 20 sec., and sealed with a rubber septum. Using a 50 μL syringe, 50 μL of the CXL-1020 stock solution was injected into each 20 mL vial containing the PBS.
Samples were prepared as follows. In duplicate, 18±1 mg of each sample was accurately weighed into each 4 mL vial. Using an auto pipette, 1 mL of argon-purged anhydrous DMF was added to each 4 mL vial to form a sample stock solution for each sample and the vials were capped and shaken and/or sonicated to insure complete sample dissolution upon visual observation. Using an auto pipette, 20 mL vials were charged with 5 mL of PBS (purged for at least 30 min. with argon prior to use), purged with argon for at least 20 sec., and sealed with a rubber septum. The vials were equilibrated for at least 10 min. at 37° C. in a dry block heater. Thereafter, using a 50 μL syringe, 50 μL of a sample stock solution was injected into each 20 mL vial containing the PBS. The vials were then held at 37° C. in the dry block heater for a time period such that the sum of the time spent in the dry block heater plus the time spent in the automated headspace analyzer oven before sample injection equaled the desired incubation time. […]

[2] = In vitro stability (half-life) in phosphate buffered saline (PBS) pH 7.4; assay type: physicochemical; conditions: pH 7.4, 5 μM, PBS pH 7.4, 37° C., read-out: T1/2 (minutes) PBS
Description: (§1) Certain compounds from Tables 1 and 2 and CXL-1020 were tested for their stability in phosphate buffered saline (PBS) and plasma. The assay system comprised (i) PBS, or plasma from rat, dog or human (at least 3 donors, male, pooled) at pH 7.4, and (ii) for tests conducted in plasma, an anticoagulant (sodium heparin or sodium citrate). Each test compound (5 μM) was incubated in PBS or plasma at 37° C. on a THERMOMIXER® with shaking. Three samples (n=3) were taken at each of seven sampling time points: 0, 10, 30, 60, 90, 180 and 360 minutes. The samples were immediately combined with 3 volumes (i.e., 3 times the volume of PBS or plasma) of acetonitrile containing 1% formic acid and an internal standard to terminate the reaction. AB SCIEX API 3000 LC-MS/MS analysis of the test compounds was performed without a standard curve. Half-lives (T1/2) of the test compounds were determined from graphs of the percent remaining values using the peak area response ratio. For compounds tested multiple times, the value provided in the Table represents an average of the replicate assays.

[3] = In vitro stability (half-life) in dog plasma; assay type: in vitro ADME; conditions: dog plasma pH 7.4 with anticoagulant, 37° C.; for half-life at 5 μM: male, dog, plasma, pH 7.4, 5 μM, read-out: T1/2 (minutes) Dog
Description: as §1

[4] = In vitro stability (half-life) in human plasma; assay type: in vitro ADME; conditions: male, human plasma pH 7.4 with anticoagulant, 37° C., read-out: T1/2 (minutes) Human
Description: as §1

[5] = In vitro stability (half-life) in rat plasma; assay type: in vitro ADME; conditions: rat plasma pH 7.4 with anticoagulant, 37° C.; for half-life at 5 μM: male, rat, plasma, pH 7.4, 5 μM, read-out: T1/2 (minutes) Rat; for T1/2 (minutes) Rat: 5 μM
Description: as §1

Row | SMILES | Relative N2O Yield (90 minutes incubation) [1] [%] | Relative N2O Yield (360 minutes incubation) [1] [%] | half-life at 5 μM [2] [min] | half-life at 5 μM [3] [min] | half-life at 5 μM [4] [min] | half-life at 5 μM [5] [min] | T1/2 (minutes) Rat [5] [min] | T1/2 (minutes) Dog ([3]; 5 μM) [min]
1 | Cc1oncc1S(=O)(=O)NO [Compound 3, N-Hydroxy-5-methyl-1,2-oxazole-4-sulfonamide] | 45 | 56 | 98 | 38 | 71 | 37 | – | –
2 | CC(C)NC(=O)c1cc(S(=O)(=O)NO)cs1 [Compound 5, 4-(Hydroxysulfamoyl)-N-(propan-2-yl)thiophene-2-carboxamide] | 48 | 72 | 136 | 28 | 24 | 104 | – | –
3 | Cc1cc(S(=O)(=O)NO)c(C(F)(F)F)o1 [Compound 7, N-Hydroxy-5-methyl-2-(trifluoromethyl)furan-3-sulfonamide] | 51 | – | 224 | 56 | – | – | – | –
4 | CS(=O)(=O)c1cc(S(=O)(=O)NO)cs1 [Compound 8, N-Hydroxy-5-methanesulfonylthiophene-3-sulfonamide] | 77 | – | 42 | 27 | – | – | – | –
5 | O=S(=O)(NO)c1cccnc1 [Compound 26, N-Hydroxypyridine-3-sulfonamide] | 73.5 | – | 53 | – | 45 | 29 | – | –
6 | Cc1noc(C)c1S(=O)(=O)NO [Compound 27, N-Hydroxy-3,5-dimethyl-1,2-oxazole-4-sulfonamide] | 35.5 | 66 | – | – | 99 | – | 75 | –
7 | Cc1ccc(F)c(S(=O)(=O)NO)c1 [Compound 56, 2-Fluoro-N-hydroxy-5-methylbenzene-1-sulfonamide] | 72 | 78 | 34 | – | – | 8 | – | –
8 | O=S(=O)(NO)c1ccc(F)c(Cl)c1 [Compound 87, 3-Chloro-4-fluoro-N-hydroxybenzene-1-sulfonamide] | 53 | 79 | 101 | 24 | – | 49 | – | –
9 | O=S(=O)(NO)c1cccc(S(=O)(=O)NO)c1 [Compound 88, 1-N,3-N-Dihydroxybenzene-1,3-disulfonamide] | 53 | 100 | 38 | 16 | – | – | – | –
10 | O=S(=O)(NO)c1cccc(Br)c1 [Compound 89, 3-Bromo-N-hydroxybenzene-1-sulfonamide] | – | – | 76 | 34 | – | 38.4 | – | –
11 | Cc1ccc(F)cc1S(=O)(=O)NO [Compound 90, 5-Fluoro-N-hydroxy-2-methylbenzene-1-sulfonamide] | 90 | – | 25.1 | 21 | – | 6.8 | – | –
12 | Cc1noc(C)c1S(=O)(=O)NO [Compound 91, N-Hydroxy-3,5-dimethyl-1,2-oxazole-4-sulfonamide] | – | – | 211 | 54.4 | – | – | 176 | –
13 | O=S(=O)(NO)c1cccc(OC(F)(F)F)c1 [Compound 92, N-Hydroxy-3-(trifluoromethoxy)benzene-1-sulfonamide] | 59 | – | 58 | 19 | 40 | 35 | 35.1 | 18.5
14 | CS(=O)(=O)c1ccc(S(=O)(=O)NO)cc1 [Compound 93, N-Hydroxy-4-methanesulfonylbenzene-1-sulfonamide] | 86 | – | 68 | – | 35 | 38 | – | –
